In patent US11826429B2, “Pharmaceutical composition comprising brinzolamide” (SENTISS PHARMA PRIVATE LIMITED, priority 2014, dated 2023):
Converted amounts (≈) assume the structure as drawn.

Tests used:
[1] = pH 6.25; cited from earlier work
[2] = Solubility studies (supernatant filtered through 0.45 syringe filter and analysed); format: physicochemical; details: for Solubility % w/v, No Further addition to the ingredients of Column 2: autoclaved 121° C./30 min, cooled; for Solubility % w/v, Polysorbate 80 (1%) in addition to the composition of Column 2: plus Polysorbate 80 (1%)
Experimental: (§1) Purified water was taken in Schott bottle. Brinzolamide was added with continuous stirring. After 30 min its pH was adjusted to 6. It was stirred for 24 hours. After which, the supernatant was filtered with 0.45 µm syringe filter and then its solubility was determined.
as §1, with “6 and was autoclaved at 121° C./30 min. After autoclaving the sample was cooled to room temperature.” for “6.”
Purified water is taken in Schott bottle. Soluplus® is added to it while stirring for 10-15 min. Polysorbate 80 is added to it while stirring for 10-20 min. After it has dissolved completely Brinzolamide is added with continuous stirring. After 30 min pH is checked and adjusted to 6 with 0.1 N NaOH. It is autoclaved at 121° C./30 min. After autoclaving the formulation is cooled to room temperature with stirring.
In order to determine the solubility the sample was centrifuged at 3500 rpm for 5 min followed by filtration through 0.45 µm syringe filter and analysis.

- Solubility when API is autoclaved and cooled ([2]; pH 6.0): 0.082%
- Solubility % w/v, No Further addition to the ingredients of Column 2 ([2]; pH 6): 0.085 % w/v
- Solubility % w/v, No Further addition to the ingredients of Column 2 ([2]; pH 6, listed as Autoclaved API): 0.0822 % w/v
- Solubility % w/v, PEG 400 (5%) in addition to the composition of Column 2 ([2]; pH 6, autoclaved, plus PEG 400 (5%)): 0.0668 % w/v
- Solubility % w/v, Polysorbate 80 (1%) in addition to the composition of Column 2 ([2]; pH 6, autoclaved): 0.2 % w/v
- Solubility % w/v, Polysorbate 80 (1%) in addition to the composition of Column 2 ([2]; pH 6, autoclaved, listed as Autoclaved API): 0.2089 % w/v
- solubility thermodynamic at 24 h ([2]; purified water, pH adjusted to 6, aqueous buffer, thermodynamic from solid, pH 6.0, not autoclaved, stirred 24 hours, read-out: Solubility determined in the lab): 545 µg/mL (≈ 1420 µM)
Compound: CCN[C@H]1CN(CCCOC)S(=O)(=O)c2sc(S(N)(=O)=O)cc21 [brinzolamide, (R)-(+)-4-ethylamino-2-(3-methoxypropyl)-3,4-dihydro-2H-thieno[3,2-e]-1,2-thiazine-6-sulfonamide-1,1-dioxide]
- Solubility as per literature [1]: 0.059 % w/v
